Laboratory results taken from patent US20230255195A1, “CRYOPRESERVATION METHOD FOR ORGAN-ON-A-CHIP” (MEPSGEN CO., LTD., priority 2020, published 2023).

Tested on: three-dimensional organ-on-a-chip (hBMEC, pericytes, astrocytes in hydrogel)
Test: TEER (transepithelial electrical resistance) of organ-on-a-chip after cryopreservation and thawing
Assay type: cell-based, human
Conditions: for TEER value after freezing compared with TEER value before freezing (normalized, before freezing set to 1): substance used as cryoprotectant in the cryopreservation method of Example 2, FIG. 9; for TEER value after freezing compared with TEER value before freezing (normalized): FIG. 10
Experimental: 10 μl of fibronectin was injected into each of the first channel and the second channel of the organ-on-a-chip of the present invention, and cultured in an incubator for 1 hour. Cell adhesion promoters of the first channel and the second channel were removed, and 10^7 cells/ml of a pericyte solution was injected into the second channel. After culturing for 3 hours in an incubator with the chip inverted, the culture solution in the second channel was removed. After injecting 10^7 cells/ml of a mixture in which astrocytes and hydrogel were mixed in a 1:9 volume ratio into the second channel, they were cultured in an incubator for 30 minutes. The culture solution was injected into the side channel and the first channel, and the well reservoir was filled with the culture solution and cultured for one day, and then 10^7 cells/ml of human brain microvascular endothelial cell (hBMEC) solution was injected into the first channel. After culturing for 1 hour in an incubator, the culture solution in the first channel was replaced and cultured for one day. The culture solution in the first channel and the side channel was replaced, and the side channel was plugged in, and then one side of the inlets of the first channel was connected to a syringe pump, and the other side was connected to a culture solution tank, and perfusion culture was performed at 4 dynes/cm^2 for 24 hours.
All of the culture solution in the well reservoir was removed from the organ-on-a-chip of Example 1 above, and the first channel and the side channel were washed with the culture solution. The side channel was washed twice with the cryopreservation solution (50% culture solution, 40% FBS, 10% DMSO) at 4 to 10° C. The culture solution in both inlets of the first channel was removed, and 30 μl of the cryopreservation solution was put into the inlet, and the cryopreservation solution was flowed by a difference in hydrostatic pressure (1 minute required). The preservation solution in the opposite inlet was removed, and 30 μl of the cryopreservation solution was additionally put into the inlet, and the cryopreservation solution was flowed by a difference in hydrostatic pressure (1 minute required). The chip was placed in a freezing container filled with isopropanol, and stored refrigerated for 15 minutes at 4° C., and then stored in a deep freezer (−80° C.).
The organ-on-a-chip of Example 2 above was taken out of the deep freezer and thawed for 10 minutes by immersing it in a constant temperature water bath (37° C.) so that the bottom was in contact, and then the culture solution in the side channel was replaced twice with a culture solution at 37° C. The preservation solution in both inlets of the first channel was removed, and 30 μl of the culture solution at 37° C. was put into the inlet, and the culture solution was flowed by a difference in hydrostatic pressure (1 minute required). The culture solution in the opposite inlet was removed, and 30 μl of the culture solution at 37° C. was additionally put into the inlet, and the culture solution was flowed by a difference in hydrostatic pressure (1 minute required). The well reservoir was filled with the culture solution at 37° C. and cultured for 24 hours or more.
The TEER value corresponds to a representative index for evaluating the cell-to-cell bonding force and the material permeability rate of the tissue and the like in the tissue function of the three-dimensional organ-on-a-chip.
The TEER value (ohm/cm^2) was calculated as follows, and the TEER value before freezing was set to 1 and compared and evaluated with the TEER value after freezing (normalized).

SMILES	TEER value after freezing compared with TEER value before freezing (normalized, before freezing set to 1)	TEER value after freezing compared with TEER value before freezing (normalized) (DMSO content 3% in preservation solution)	TEER value after freezing compared with TEER value before freezing (normalized) (DMSO content 5% in preservation solution)	TEER value after freezing compared with TEER value before freezing (normalized) (DMSO content 10% in preservation solution)
OCC(O)CO [glycerol]	remained the same	–	–	–
C[S+](C)[O-] [DMSO, dimethyl sulfoxide]	increased	remained the same	increased	increased
OCCO [EG, ethylene glycol]	lower than the TEER value before freezing	–	–	–
